Laboratory results taken from publication PMC3466204 (PLoS ONE, 2012).
Ends that are not written are not given here.

Test system: Lactococcus lactis HP
Assay: Agarose-based assay of cell-free supernatants of S29X producing strains
Conditions: for Zone Diameter (mm): agarose (1%) GM17 assay, 10 µl cell-free supernatant of overnight producing culture in 4.6 mm wells, L. lactis HP, 30°C; for % difference (zone relative to wild type): agarose assay of supernatants against L. lactis HP, wild type serine = 100
Experimental: Agarose-based deferred antagonism assays were carried out as follows: GM17/LB (0.03%) underlay was prepared with 10 mM sodium phosphate buffer (SPB) at pH 7.4 to which was added agarose (1% w/v agarose), autoclaved and cooled to 50°C. Bacteria grown to mid-logarithmic phase were harvested by centrifugation and washed with 10 mM SPB at pH 7.4. Bacteria were then added to 15 mls cooled underlay medium to reach a concentration of 2×10^7 colony-forming units (CFU)/mL. The inoculated medium was rapidly transferred into sterile Petri plates, allowed to solidify and dried. Wells (4.6 mm in diameter) were then made in the seeded plates. 10 µl volumes of cell-free supernatant from overnight nisin derivative producing cultures or resuspended purified peptides were then added to the wells and the plates incubated at 30°C (L. lactis) or 37°C (Gram positive strains) or RT (Gram negative strains) for 3 hours. Polymyxin B (Sigma Aldrich) was used at a concentration of 20 µg/ml. The plates were then overlaid with 15 mls of autoclaved double strength GM17 (L. lactis) or LB (Gram negatives) agarose (1% w/v agarose) overlay medium precooled to 50°C. The plates were then incubated overnight at the relevant temperature.

Substance | Zone Diameter (mm) | % difference (zone relative to wild type)
S29K: nisin A S29 saturation derivative, lysine at position 29 (ITSISLCTPGCKTGALMGCNMKTATCHCKIHVSK; not fully specified (bridges); also: lantibiotic nisin A (lanthionine rings, dehydrated residues not placed); UniProt P13068 24-57, looked up, variant S29K) | 9.9±1.0 mm | 64%
S29L: nisin A S29 saturation derivative, leucine at position 29 (ITSISLCTPGCKTGALMGCNMKTATCHCLIHVSK; not fully specified; cysteine pairing not given here; UniProt P13068 24-57, looked up, variant S29L) | 12.7±0.7 mm | 84%
S29C: nisin A S29 saturation derivative, cysteine at position 29 (ITSISLCTPGCKTGALMGCNMKTATCHCCIHVSK; not fully specified; cysteine pairing not given here; UniProt P13068 24-57, looked up, variant S29C) | 10.5±1.0 mm | 69%
S29N: nisin A S29 saturation derivative, asparagine at position 29 (ITSISLCTPGCKTGALMGCNMKTATCHCNIHVSK; not fully specified; cysteine pairing not given here; UniProt P13068 24-57, looked up, variant S29N) | 12.6±1.0 mm | 83%
S29W: nisin A S29 saturation derivative, tryptophan at position 29 (ITSISLCTPGCKTGALMGCNMKTATCHCWIHVSK; not fully specified; cysteine pairing not given here; UniProt P13068 24-57, looked up, variant S29W) | 12.1±1.2 mm | 79%
S29V: nisin A S29 saturation derivative, valine at position 29 (ITSISLCTPGCKTGALMGCNMKTATCHCVIHVSK; not fully specified (bridges); also: lantibiotic nisin A (lanthionine rings, dehydrated residues not placed); UniProt P13068 24-57, looked up, variant S29V) | 11.6±0.4 mm | 76%
S29H: nisin A S29 saturation derivative, histidine at position 29 (ITSISLCTPGCKTGALMGCNMKTATCHCHIHVSK; not fully specified (bridges); also: lantibiotic nisin A (lanthionine rings, dehydrated residues not placed); UniProt P13068 24-57, looked up, variant S29H) | 10.9±0.3 mm | 72%
S29Q: nisin A S29 derivative, glutamine at position 29, made by site-directed mutagenesis (ITSISLCTPGCKTGALMGCNMKTATCHCQIHVSK; not fully specified; cysteine pairing not given here; UniProt P13068 24-57, looked up, variant S29Q) | 15.3±0.1 mm | 100%
S29I: nisin A S29 saturation derivative, isoleucine at position 29 (ITSISLCTPGCKTGALMGCNMKTATCHCIIHVSK; not fully specified; cysteine pairing not given here; UniProt P13068 24-57, looked up, variant S29I) | 9.9±1.0 mm | 65%
S29T: nisin A S29 saturation derivative, threonine at position 29 (ITSISLCTPGCKTGALMGCNMKTATCHCTIHVSK; not fully specified (bridges); also: lantibiotic nisin A (lanthionine rings, dehydrated residues not placed); UniProt P13068 24-57, looked up, variant S29T) | 12.1±0.9 mm | 79%
S29P: nisin A S29 saturation derivative, proline at position 29 (ITSISLCTPGCKTGALMGCNMKTATCHCPIHVSK; not fully specified (bridges); also: lantibiotic nisin A (lanthionine rings, dehydrated residues not placed); UniProt P13068 24-57, looked up, variant S29P) | 13.7±1.0 mm | 89%
S29R: nisin A S29 saturation derivative, arginine at position 29 (ITSISLCTPGCKTGALMGCNMKTATCHCRIHVSK; not fully specified (bridges); also: lantibiotic nisin A (lanthionine rings, dehydrated residues not placed); UniProt P13068 24-57, looked up, variant S29R) | 11.0±0.6 mm | 72%
S29Y: nisin A S29 saturation derivative, tyrosine at position 29 (ITSISLCTPGCKTGALMGCNMKTATCHCYIHVSK; not fully specified (bridges); also: lantibiotic nisin A (lanthionine rings, dehydrated residues not placed); UniProt P13068 24-57, looked up, variant S29Y) | 10.6±0.6 mm | 70%
S29F: nisin A S29 saturation derivative, phenylalanine at position 29 (ITSISLCTPGCKTGALMGCNMKTATCHCFIHVSK; not fully specified (bridges); also: lantibiotic nisin A (lanthionine rings, dehydrated residues not placed); UniProt P13068 24-57, looked up, variant S29F) | 11.0±1.0 mm | 72%
